# Literature values, collected in patent US20030228375A1 (priority 2002, published 2003).
# Where two headings read alike, the source gives them in different places.
# What was measured:
# healthy young men = conditions: 300 mg/wk for six weeks; TE shoulders, ND shoulders and chest
# hypogonadal men = conditions: for waking erection: Asian group; for sexual interest and activity, spontaneous erection: Caucasian group
# [1] = test system: people with panhypopituitarism
# HIV-infected men = conditions: pharmacological doses
# [2] = nandrolone use
# [3] = body builders
# patients on dialysis = conditions: compared with placebo
# [4] = in vivo
# [5] = supplementation
# aromatase = target: T1, aromatase (Homo sapiens, UniProt P11511); conditions: compared with chrysin, AG and ANG
# T1 sequence (P11511 1-503): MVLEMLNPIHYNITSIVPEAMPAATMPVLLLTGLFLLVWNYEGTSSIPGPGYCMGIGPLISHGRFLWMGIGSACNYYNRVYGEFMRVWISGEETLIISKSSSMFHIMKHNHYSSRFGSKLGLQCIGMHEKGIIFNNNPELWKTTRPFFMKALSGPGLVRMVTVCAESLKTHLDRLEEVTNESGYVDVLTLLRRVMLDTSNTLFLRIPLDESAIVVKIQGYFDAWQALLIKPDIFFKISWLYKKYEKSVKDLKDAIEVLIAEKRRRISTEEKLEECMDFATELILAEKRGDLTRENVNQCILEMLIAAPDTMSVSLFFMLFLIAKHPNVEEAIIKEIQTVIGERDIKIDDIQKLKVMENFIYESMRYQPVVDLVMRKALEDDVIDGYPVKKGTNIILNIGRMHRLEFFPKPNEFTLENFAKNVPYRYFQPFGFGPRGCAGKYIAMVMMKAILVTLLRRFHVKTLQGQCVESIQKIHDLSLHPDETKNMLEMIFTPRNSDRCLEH
# [6] = supplementation; remark: listed apart in the source
# [7] = test system: prostate and seminal vesicle weights
structure (smiles),measurement,setting,value
"CCCCCCC(=O)O[C@H]1CC[C@H]2[C@@H]3CCC4=CC(=O)CC[C@]4(C)[C@H]3CC[C@]12C [TE, testosterone enanthate]",body circumferences (of fifteen),healthy young men,significant increases
same,waking erection,hypogonadal men,increased waking erection
same,"sexual interest and activity, spontaneous erection",hypogonadal men,significant increases
"C[C@]12CC[C@H](O)CC1=CC[C@@H]1[C@@H]2CC[C@]2(C)C(=O)CC[C@@H]12 [DHEA, dehydro-epiandrosterone]",plasma testosterone,[1]; 50 mg dose,restored plasma testosterone to levels similar to those observed in young women
same,"plasma estrogens, particularly estradiol",[1]; 50 mg or 200 mg,significant and dose dependent increase
same,plasma testosterone,[1]; 200 mg dose,slightly below the levels observed in normal men
"CCCCCCCCCC(=O)O[C@H]1CC[C@H]2[C@@H]3CCC4=CC(=O)CC[C@@H]4[C@H]3CC[C@]12C [ND, 19-nor-testosterone decanoate]","total weight, lean body mass, body cell mass, muscle size and strength",HIV-infected men,significant gains
same,body circumferences (of fifteen),healthy young men,significant increases
"C[C@]12CC[C@H]3[C@@H](CCC4=CC(=O)CC[C@@H]43)[C@@H]1CC[C@@H]2O [nandrolone, 19-nor-testosterone]",energy expenditure,young female rats,increased energy expenditure
same,effect on sperm,[2],azoospermia
same,decrease in HDL-cholesterol,[3],25-27%
same,lean body mass,patients on dialysis,increased significantly
C[C@]12CC[C@H]3[C@@H](CCC4=CC(=O)CC[C@@]43C)[C@@H]1CC[C@@H]2O [testosterone],proportion of protein in the body composition,young female rats,increased the proportion of protein
C[C@]12CC[C@H]3[C@@H](CCC4=C[C@@H](O)CC[C@@]43C)[C@@H]1CC[C@@H]2O [4-androstenediol],human serum testosterone levels,[4],elevations in human serum testosterone levels
same,urine testosterone concentration relative to 4-androstenedione,[5],10 fold
"COc1ccc(-c2coc3cc(O)cc(O)c3c2=O)cc1 [Biochanin A, 5,7-dihydroxy-4′-methoxyisoflavone]",aromatase inhibition,aromatase,"inhibited aromatase, but to a lesser degree"
C[C@]12CC[C@H]3[C@@H](CC=C4C[C@@H](O)CC[C@@]43C)[C@@H]1CC[C@@H]2O [5-androstenediol],proportion of protein in the body composition,young female rats,increased the proportion of protein
C[C@]12CCC(=O)C=C1CC[C@@H]1[C@@H]2CC[C@]2(C)C(=O)CC[C@@H]12 [4-androstenedione],serum testosterone,[6],elevations in serum testosterone
"C[C@@H]1CC2=CC(=O)CC[C@@H]2[C@H]2CC[C@]3(C)[C@@H](O)CC[C@H]3[C@@H]21 [MENT, 7α-methyl-19-nor-testosterone]",anabolic potency relative to testosterone,levator ani muscles,ten-times as potent as testosterone
same,waking erection,hypogonadal men,increased waking erection
same,"sexual interest and activity, spontaneous erection",hypogonadal men,significant increases
same,androgenic potency relative to testosterone,[7],four- to five-times more androgenic than testosterone
